# According to patent US7611856B2 (priority 2003, dated 2009):
# System: BoNT
# Assay type: biochemical, Clostridium botulinum
substance,measurement,value
(SNRTRIDQGNQRATRNleL)4K2KC(beta)A [Substrate 39],specific turnover over unspecific protease background cleavage reactions,shown to increase the specific turnover
